The test system of experiment [1] is U2OS. The experiment can be described thus: (§1) Here: values are normalized to the negative (DMSO; defined as 0% autophagy induction) and positive (250nM Torin1; mTOR inhibitor; defined as maximal inducer of autophagy = 100%) control compounds and represented as % of autophagy induction. […] The impact of autophagy induction on cells is complex and depends on the affected target. As such, the magnitude of a phenotype may not be equally mirrored in the %-value of autophagy induction and vice versa. The dynamics of the induction may indicate the mode of activation: e.g. activation via phosphorylation or a signaling cascade may occur fast, while activation via transcription factors may take considerably longer. […] Of note, treatment concentrations may be sub-optimal for specific compounds, leading to false negative annotations. It counts as functional, Homo sapiens. The following applies: Culturing Media DMEM, 1 % Penicillin/Streptomycin, 10% Fetal bovin serum Add-On: No, Screening Media Control DMEM, Screening Media Samples DMEM.

Experiment [2] concerns U2OS. The description is as §1. The following applies: Culturing Media DMEM, 1 % Penicillin/Streptomycin, 10% Fetal bovin serum Add-On: No, Screening Media Control DMEM, Screening Media Samples DMEM. The experiment is classed as functional, Homo sapiens. The source holds these as a separate data set.
Where [3] appears, read: Compound Concentration 0.5 uM, Timepoint 12 hours.
Setting [4] is: Compound Concentration 0.5 uM, Timepoint 24 hours.
[5] abbreviates: Compound Concentration 0.5 uM, Timepoint 36 hours.
Setting [6] is: Compound Concentration 0.5 uM, Timepoint 60 hours.
Setting [7] is: Compound Concentration 2 uM, Timepoint 12 hours.
Where [8] appears, read: Compound Concentration 2 uM, Timepoint 24 hours.
The mark [9] stands for this setting: Compound Concentration 2 uM, Timepoint 36 hours.
The mark [10] stands for this setting: Compound Concentration 2 uM, Timepoint 60 hours.
Setting [11] is: Compound Concentration 10 uM, Timepoint 12 hours.
[12] abbreviates: Compound Concentration 10 uM, Timepoint 24 hours.
Setting [13] is: Compound Concentration 10 uM, Timepoint 36 hours.
Setting [14] is: Compound Concentration 10 uM, Timepoint 60 hours.

For the compound `Cc1c(OCc2cccc(-c3ccc(C(=O)O)cc3)c2)cc2c(c1C)C(=O)C(C1CCCC1)C2` (centres undefined), the autophagy induction with U2OS [1] (setting [3]) is -1.105%; with U2OS [1] (setting [4]), -3.325%; in the experiment with U2OS [1] (setting [5]) it was -3.23%; with U2OS [1] (setting [6]) it was 114.413%; in the experiment on U2OS [1] (setting [7]), 3.182%; in the experiment with U2OS [1] (setting [8]) it was -1.283%. In addition, the autophagy induction in the experiment on U2OS [1] (setting [9]) is recorded as -1.767%; in the experiment with U2OS [1] (setting [10]), 114.283%; with U2OS [1] (setting [11]), 2.021%; with U2OS [1] (setting [12]), -2.128%; with U2OS [1] (setting [13]), 0.06533%; in the experiment with U2OS [1] (setting [14]), 114.104%. The autophagy induction in the experiment on U2OS [2] (setting [3]) is 16.7916%; in the experiment on U2OS [2] (setting [4]), 7.662%; with U2OS [2] (setting [5]), 9.473%; with U2OS [2] (setting [6]), -0.5665%; with U2OS [2] (setting [7]) it was 6.511%; in the experiment on U2OS [2] (setting [8]) it was 6.165%. Also, the autophagy induction with U2OS [2] (setting [9]) is 2.879%; with U2OS [2] (setting [10]), -1.177%; with U2OS [2] (setting [11]) it was 6.9%; in the experiment on U2OS [2] (setting [12]), 7.1725%; in the experiment with U2OS [2] (setting [13]), 8.617%; with U2OS [2] (setting [14]), 11.2815%.
As to `O=C(O)CC/C=C\C[C@@H]1CO[C@H](c2ccccc2Cl)O[C@@H]1c1ccccc1O`, the autophagy induction in the experiment on U2OS [1] (setting [3]) is -2.932%; in the experiment on U2OS [1] (setting [4]) it was -1.885%; in the experiment on U2OS [1] (setting [5]), -1.616%; with U2OS [1] (setting [6]) it was 114.317%; in the experiment on U2OS [1] (setting [7]), -0.3574%; in the experiment on U2OS [1] (setting [8]), -1.612%. The autophagy induction in the experiment on U2OS [1] (setting [9]) is listed as -1.86%; in the experiment on U2OS [1] (setting [10]), 114.217%; in the experiment on U2OS [1] (setting [11]), -0.147%; with U2OS [1] (setting [12]), -2.085%; in the experiment with U2OS [1] (setting [13]), -2.519%; in the experiment on U2OS [1] (setting [14]), 114.255%. In addition, the autophagy induction with U2OS [2] (setting [3]) is -1.049%; in the experiment with U2OS [2] (setting [4]), 2.549%; in the experiment on U2OS [2] (setting [5]) it was 1.3825%; in the experiment with U2OS [2] (setting [6]), -3.206%; with U2OS [2] (setting [7]), -3.826%; in the experiment with U2OS [2] (setting [8]), -5.258%. The autophagy induction is listed as 1.68% in the experiment on U2OS [2] (setting [9]); -8.886% with U2OS [2] (setting [10]); 0.2701% in the experiment on U2OS [2] (setting [11]); -2.3073% in the experiment on U2OS [2] (setting [12]); -0.4123% in the experiment with U2OS [2] (setting [13]); -4.081% in the experiment with U2OS [2] (setting [14]).
For the compound `Cl.Cl.Cl.c1ccc(N2CCN(Cc3nc4ccccc4[nH]3)CC2)nc1`, the autophagy induction is recorded as -5.698% in the experiment on U2OS [1] (setting [3]); -1.19% with U2OS [1] (setting [4]); -1.541% in the experiment on U2OS [1] (setting [5]); -2680.35% in the experiment on U2OS [1] (setting [6]); -2.768% in the experiment on U2OS [1] (setting [7]); -5.039% in the experiment on U2OS [1] (setting [8]). Also, the autophagy induction is given as -4.313% in the experiment on U2OS [1] (setting [9]); -2193.41% in the experiment with U2OS [1] (setting [10]); 1.805% with U2OS [1] (setting [11]); -0.2364% with U2OS [1] (setting [12]); -2.475% in the experiment with U2OS [1] (setting [13]); 114.324% in the experiment on U2OS [1] (setting [14]). For the same compound, the autophagy induction in the experiment with U2OS [2] (setting [3]) was 6.453%; in the experiment with U2OS [2] (setting [4]), 3.88%; in the experiment with U2OS [2] (setting [5]), 1.316%; in the experiment on U2OS [2] (setting [6]), -5.738%; in the experiment on U2OS [2] (setting [7]) it was 16.1665%; in the experiment with U2OS [2] (setting [8]) it was 12.3628%. For the same compound, the autophagy induction was 4.3069% with U2OS [2] (setting [9]); -1.986% in the experiment with U2OS [2] (setting [10]); 1.702% in the experiment with U2OS [2] (setting [11]); -2.316% in the experiment on U2OS [2] (setting [12]); -1.149% in the experiment on U2OS [2] (setting [13]); 1.595% in the experiment on U2OS [2] (setting [14]).
For `CC(C)Oc1ccccc1C(=O)Nc1ccccc1C(=O)Nc1cccc(S(=O)(=O)C(F)(F)F)c1`, the autophagy induction was 3.012% in the experiment on U2OS [1] (setting [3]); -1.737% in the experiment with U2OS [1] (setting [4]); -1.42% in the experiment on U2OS [1] (setting [5]); 114.268% in the experiment with U2OS [1] (setting [6]); 8.776% with U2OS [1] (setting [7]); 3.511% with U2OS [1] (setting [8]). For the same compound, the autophagy induction in the experiment on U2OS [1] (setting [9]) is on record as 2.272%; with U2OS [1] (setting [10]) it was 113.873%; with U2OS [1] (setting [11]), -16.0939%; in the experiment on U2OS [1] (setting [12]) it was -18.3481%; in the experiment on U2OS [1] (setting [13]), -11.2669%; in the experiment on U2OS [1] (setting [14]), 115.068%. Moreover, the autophagy induction is -12.7089% with U2OS [2] (setting [3]); -12.2172% in the experiment on U2OS [2] (setting [4]); -12.6004% in the experiment with U2OS [2] (setting [5]); -17.6606% in the experiment on U2OS [2] (setting [6]); 2.367% in the experiment on U2OS [2] (setting [7]); 0.4504% in the experiment with U2OS [2] (setting [8]). For the same compound, the autophagy induction in the experiment on U2OS [2] (setting [9]) is given as -2.457%; in the experiment on U2OS [2] (setting [10]), -5.945%; with U2OS [2] (setting [11]), 11.8819%; in the experiment on U2OS [2] (setting [12]), 14.0193%; in the experiment on U2OS [2] (setting [13]), 13.5851%; with U2OS [2] (setting [14]), 17.9189%.
As for `N[C@H](C(=O)O)c1ccc(C(=O)O)c(C(=O)O)c1`, the autophagy induction was -6.378% with U2OS [1] (setting [3]); -5.676% with U2OS [1] (setting [4]); -3.938% in the experiment with U2OS [1] (setting [5]); 114.48% in the experiment on U2OS [1] (setting [6]); 4.454% in the experiment with U2OS [1] (setting [7]); -1.856% in the experiment with U2OS [1] (setting [8]). Also, the autophagy induction with U2OS [1] (setting [9]) is recorded as -1.714%; in the experiment with U2OS [1] (setting [10]) it was 114.31%; with U2OS [1] (setting [11]), 50.3971%; in the experiment on U2OS [1] (setting [12]), 15.7905%; in the experiment on U2OS [1] (setting [13]), 7.703%; in the experiment with U2OS [1] (setting [14]) it was 113.866%. In addition, the autophagy induction in the experiment with U2OS [2] (setting [3]) is on record as -5.827%; in the experiment with U2OS [2] (setting [4]), -6.791%; in the experiment with U2OS [2] (setting [5]), -11.2953%; with U2OS [2] (setting [6]), -15.497%; with U2OS [2] (setting [7]) it was 2.006%; in the experiment with U2OS [2] (setting [8]), -3.7569%. Further, the autophagy induction in the experiment with U2OS [2] (setting [9]) is on record as 0.8793%; with U2OS [2] (setting [10]), 2.43%; in the experiment with U2OS [2] (setting [11]), -6.462%; in the experiment on U2OS [2] (setting [12]), -8.325%; in the experiment on U2OS [2] (setting [13]), -2.853%; with U2OS [2] (setting [14]), -1.815%.
For the compound `COc1cccc(-c2c(C)n(Cc3c(F)cccc3C(F)(F)F)c(=O)n(C[C@H](NCCCC(=O)[O-])c3ccccc3)c2=O)c1F.[Na+]` [ELAGOLIX SODIUM], the autophagy induction is on record as -3.352% in the experiment on U2OS [1] (setting [3]); -3.1643% in the experiment on U2OS [1] (setting [4]); -0.7483% with U2OS [1] (setting [5]); -1111.24% with U2OS [1] (setting [6]); -6.63% in the experiment with U2OS [1] (setting [7]); -5.163% in the experiment with U2OS [1] (setting [8]). Moreover, the autophagy induction in the experiment with U2OS [1] (setting [9]) was -4.643%; with U2OS [1] (setting [10]) it was 114.391%; with U2OS [1] (setting [11]), -2.89%; with U2OS [1] (setting [12]), -3.023%; with U2OS [1] (setting [13]), -0.9947%; in the experiment with U2OS [1] (setting [14]), 114.218%. Further, the autophagy induction with U2OS [2] (setting [3]) was 4.133%; in the experiment with U2OS [2] (setting [4]), 4.438%; in the experiment on U2OS [2] (setting [5]) it was 6.469%; in the experiment on U2OS [2] (setting [6]) it was -7.02%; with U2OS [2] (setting [7]) it was 12.3647%; in the experiment on U2OS [2] (setting [8]), 8.125%. In addition, the autophagy induction in the experiment with U2OS [2] (setting [9]) was 1.282%; in the experiment on U2OS [2] (setting [10]), -8.542%; in the experiment on U2OS [2] (setting [11]), -6.525%; in the experiment on U2OS [2] (setting [12]), -4.485%; with U2OS [2] (setting [13]), -1.897%; in the experiment on U2OS [2] (setting [14]) it was -2.895%.

Values taken from ChEMBL document CHEMBL5724696, “Autophagy assay results for EUbOPEN Chemogenomics Library” (2024).
